Laboratory results reported in ChEMBL document CHEMBL5725290, “IRE-1α inhibitors” (2017).

Molecular target: Serine/threonine-protein kinase/endoribonuclease IRE1 (Homo sapiens, UniProt O75460)
Test: IRE-1alpha Assay: A fusion protein comprising glutathione S transferase (GST) and human IRE-1α (GST-IRE-1α) obtained from a 500 ml baculovirus-infected insect cell culture can be used to measure IRE-1α activity in vitro. Five μl of a reaction mixture comprising 1× reaction buffer (5× reaction buffer is 100 mM Hepes pH 7.5, 250 mM KOAc, 2.5 mM MgCl2), 3 mM DTT, and 0.4% polyethylene glycol water is added to each well of 384 well plates. Twenty-five nanoliters of a 1 mM test compound solution are added to test wells. Three μl of a 128 ng/ml IRE-1α preparation are added to each test well and to positive control wells (final concentration 5.82 ng/well). Negative control wells contain only reaction mixture and test compound. After spinning the plates at 1200 rpm for 30 seconds, 3 μl of an IRE-1α human mini-XBP-1 mRNA stem-loop substrate 5'-[…]-3' (SEQ ID NO:1), labeled with the fluorescent dye Cy5 at the 5' end and Black Hole Quencher 2 (BH2) at the 3' end, are added to each well of a control plate. The plates are again spun at 1200 rpm for 30 seconds. Final concentrations for the assay are: 63 nM IRE-1α substrate, 5.82 ng IRE-1α protein, and 2.5 μM test compound. The plates are covered with lids and incubated for one hour at 30° C. The plates are then transferred to an ACQUEST™ microplate reader. Data is analyzed using data analysis software, and the percent activity of IRE-1α is calculated.

Chain of Serine/threonine-protein kinase/endoribonuclease IRE1 (O75460 whole entry, the tested form may be a part): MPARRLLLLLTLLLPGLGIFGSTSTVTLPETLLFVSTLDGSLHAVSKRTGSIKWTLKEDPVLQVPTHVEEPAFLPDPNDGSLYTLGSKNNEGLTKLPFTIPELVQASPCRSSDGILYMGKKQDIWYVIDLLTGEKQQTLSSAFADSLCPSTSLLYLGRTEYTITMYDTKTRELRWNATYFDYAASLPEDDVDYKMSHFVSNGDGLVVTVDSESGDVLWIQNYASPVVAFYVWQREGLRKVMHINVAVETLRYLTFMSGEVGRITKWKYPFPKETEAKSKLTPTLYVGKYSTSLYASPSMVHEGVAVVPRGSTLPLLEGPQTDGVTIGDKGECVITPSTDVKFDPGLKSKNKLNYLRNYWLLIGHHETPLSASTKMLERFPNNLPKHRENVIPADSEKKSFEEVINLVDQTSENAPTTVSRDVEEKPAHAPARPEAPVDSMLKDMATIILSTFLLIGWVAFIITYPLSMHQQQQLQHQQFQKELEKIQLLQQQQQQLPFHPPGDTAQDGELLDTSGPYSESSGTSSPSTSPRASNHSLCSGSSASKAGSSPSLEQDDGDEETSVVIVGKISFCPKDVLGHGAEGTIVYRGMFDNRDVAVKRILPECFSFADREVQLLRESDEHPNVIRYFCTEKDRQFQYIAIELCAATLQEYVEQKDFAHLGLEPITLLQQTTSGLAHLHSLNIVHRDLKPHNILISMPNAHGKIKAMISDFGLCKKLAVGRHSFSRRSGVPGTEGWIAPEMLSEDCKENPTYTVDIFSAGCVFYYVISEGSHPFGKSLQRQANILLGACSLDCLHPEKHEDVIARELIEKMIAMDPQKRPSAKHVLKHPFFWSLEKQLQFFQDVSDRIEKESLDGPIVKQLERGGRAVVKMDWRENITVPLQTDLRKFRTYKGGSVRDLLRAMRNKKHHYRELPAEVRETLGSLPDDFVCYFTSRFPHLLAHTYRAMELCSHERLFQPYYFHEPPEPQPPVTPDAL

EC50	Compound
< 10 µM	Cc1c(Br)c(=O)oc2c(C=O)c(O)ccc12
> 10 µM	O=Cc1c(O)ccc2cc(-c3ccc(Br)cc3)c(=O)oc12
< 10 µM	Cc1c(-c2ccc(C(=O)N3CCN(C)CC3)cc2)c(=O)oc2c(C=O)c(O)ccc12
> 10 µM	CCN(CC)CCc1c(C)c2ccc(O)c(C=O)c2oc1=O
< 10 µM	COc1cc2c(C)c(Br)c(=O)oc2c(C=O)c1O
< 10 µM	Cc1c(Br)c(=O)oc2c(C=O)c(O)c(F)cc12
< 10 µM	Cc1c(-c2cccc(C(=O)N3CCOCC3)c2)c(=O)oc2c(C=O)c(O)ccc12
> 10 µM	Cc1c(Cc2ccccc2)c(=O)oc2c(C=O)c(O)c(O)cc12
< 10 µM	Cc1c(-c2ccc(C(=O)N3CCCC3)cc2)c(=O)oc2c(C=O)c(O)ccc12
< 10 µM	Cc1c(-c2ccc(C(=O)N3CCC(C)CC3)cc2)c(=O)oc2c(C=O)c(O)ccc12
> 10 µM	Cc1c(-c2cccc(C(=O)N3CCCC3)c2)c(=O)oc2c(C=O)c(O)ccc12
< 10 µM	Cc1cc(=O)oc2c(C=O)c(O)c(F)cc12
< 10 µM	Cc1c(-c2ccc(N3CCN(C)CC3)cc2)c(=O)oc2c(C=O)c(O)c(F)cc12
< 10 µM	COc1cc2c(C)c(-c3ccc(C(=O)N4CCOCC4)cc3)c(=O)oc2c(C=O)c1O
> 10 µM	Cc1nc(N2CCc3c(ccc(O)c3C=O)C2)sc1C(=O)N1CCOCC1
< 10 µM	O=Cc1c(O)ccc2nc(-c3cccc(C(=O)N4CCOCC4)c3)ccc12
> 10 µM	CC1CCN(C(=O)c2ccc(-c3ccc4c(C=O)c(O)ccc4n3)cc2)CC1
< 10 µM	O=Cc1c(O)ccc2nc(-c3ccc(C(=O)N4CCCC4)cc3)ccc12
< 10 µM	O=Cc1c(O)ccc2nc(N3CCC(NC(=O)CN4CCOCC4)C3)ccc12 (stereo not given)
< 10 µM	CC(=O)NC1CCN(c2ccc3c(C=O)c(O)ccc3n2)C1 (stereo not given)
> 10 µM	CN1CCN(C2CCN(c3nc4ccc(O)c(C=O)c4s3)C2)CC1 (stereo not given)
> 10 µM	CC(C)N1CCN(c2nc3ccc(O)c(C=O)c3s2)CC1
> 10 µM	CN1CCN(C(=O)c2ccc(-c3nc4ccc(O)c(C=O)c4s3)s2)CC1
> 10 µM	CC1CCN(C(=O)c2ccc(-c3nc4ccc(O)c(C=O)c4s3)cc2)CC1
> 10 µM	O=Cc1c(O)ccc2nc(-c3ccc(C(=O)O)cc3)[nH]c12
> 10 µM	COC(=O)c1ccc(-c2nc3ccc(O)c(C=O)c3[nH]2)cc1
> 10 µM	O=Cc1c(O)ccc2nc(-c3ccc(C(=O)NCCN4CCOCC4)cc3)[nH]c12
> 10 µM	O=Cc1c(O)ccc2nc(-c3ccc(C(=O)N4CCOCC4)cc3)[nH]c12
> 10 µM	CN1CCN(C(=O)c2ccc(-c3nc4ccc(O)c(C=O)c4[nH]3)cc2)CC1
< 10 µM	Cc1c(CCC(=O)N2CCOCC2)c(=O)oc2c(C=O)c(O)ccc12
